PMC12434536, “Radiosynthesis and Preclinical Evaluation of a Carbon-11 Labeled Phosphodiesterase 7 Inhibitor for PET Neuroimaging” (ACS Medicinal Chemistry Letters, 2025)
Where two headings read alike, the source gives them in different places.

Tests used:
PDE7A = target: T1, PDE7A (Homo sapiens, UniProt Q13946); test: In vitro inhibitory assay of PDE7A activity; assay type: biochemical; settings: human recombinant enzyme; read-out: inhibitory constant (IC50) toward PDE7A
T1 construct: purchased Eurofins Panlabs Discovery Services (contract assay)
Procedure: protein-ligand complex were saved and were then loaded into Schrödinger Maestro to generate the ligand interaction plot.
In vitro inhibitory assay to PDE7 of compound 27 and selectivity to other PDEs Functional activity of target compound 27 for inhibition of PDE7A activity and the selectivity over other PDE isozymes (PDE1A/B/C, 2A, 3A/B, 4A/B/C/D, 5A, 8A, 9A, and 10A) were evaluated by Eurofins Panlabs Discovery Services and Reaction Biology Corp., respectively. Human recombinant enzymes were used for the assays. The inhibitory assays were performed and calculated in duplicate at 3 µM. If the inhibition percentage was less than 50%, the assay for half-maximal inhibitory concentration (IC50) value was conducted in […]
CYP450 isoform metabolism and in vitro safety profiling
The inhibitory constant of compound 26 toward cytochrome P450-dependent metabolic pathways was determined for individual CYP isoform (CYP1A2, CYP2C9, CYP2C19, CYP2D6, and CYP3A4). Reference inhibitors were included as positive controls. A 10 µM solution of compound 27 was used for initial screening. If the inhibition percentage was less than 50%, the experiment was stopped. If the inhibition potency was greater than 50%, the gradient concentrations of compound 27 were used for IC 50 determination. The P450 reactions were detected at Ext/Em: 405 nm/460 nm (530 nm/605 nm for CYP2C9) in a […]

CYP1A2 = target: T2, CYP1A2 (Homo sapiens, UniProt P05177); test: CYP450 isoform inhibition profiling, CYP1A2; assay type: in vitro ADME
T2 sequence (P05177 1-516): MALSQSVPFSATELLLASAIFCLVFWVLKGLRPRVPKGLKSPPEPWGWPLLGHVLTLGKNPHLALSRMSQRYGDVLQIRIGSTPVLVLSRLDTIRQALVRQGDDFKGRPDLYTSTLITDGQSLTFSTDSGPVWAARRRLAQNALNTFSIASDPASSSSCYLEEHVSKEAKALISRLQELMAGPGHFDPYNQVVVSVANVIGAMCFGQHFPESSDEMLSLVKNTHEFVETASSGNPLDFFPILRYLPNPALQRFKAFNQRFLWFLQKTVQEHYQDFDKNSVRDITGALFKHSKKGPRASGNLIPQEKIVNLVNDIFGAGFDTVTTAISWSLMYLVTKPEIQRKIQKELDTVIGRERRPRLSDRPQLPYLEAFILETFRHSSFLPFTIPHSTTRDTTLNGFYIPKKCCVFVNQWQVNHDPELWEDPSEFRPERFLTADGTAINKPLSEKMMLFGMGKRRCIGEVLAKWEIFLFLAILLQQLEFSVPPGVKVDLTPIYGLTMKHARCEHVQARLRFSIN
Procedure: (§1) page 5: protein-ligand complex were saved and were then loaded into Schrödinger Maestro to generate the ligand interaction plot. In vitro inhibitory assay to PDE7 of compound 27 and selectivity to other PDEs Functional activity of target compound 27 for inhibition of PDE7A activity and the selectivity over other PDE isozymes ([…], and 10A) were evaluated by Eurofins Panlabs Discovery Services and Reaction Biology Corp., respectively. Human recombinant enzymes were used for the assays. The inhibitory assays were performed and calculated in duplicate at 3 μM. If the inhibition percentage was less […] duplicate. CYP450 isoform metabolism and in vitro safety profiling The inhibitory constant of compound 26 toward cytochrome P450-dependent metabolic pathways was determined for individual CYP isoform (CYP1A2, CYP2C9, CYP2C19, CYP2D6, and CYP3A4). Reference inhibitors were included as positive controls. A 10 μM solution of compound 27 was used for initial screening. If the inhibition percentage was less than 50%, the experiment was stopped. […] gradient concentrations of compound 27 were used for IC 50 determination. The P450 reactions were detected at Ext/Em: 405 nm/460 nm (530 nm/605 nm for CYP2C9) in a S3 page 6: […] IC50 curves were plotted using a non-linear regression model with Graphpad Prism 6. […] Plasma and brain samples were quantified by LC-MS/MS method. […]

[1] = system: CYP2C9, CYP2C19, CYP2D6, CYP3A4; test: CYP450 isoform inhibition profiling, other isoforms; assay type: in vitro ADME; settings: all isoforms except CYP1A2; read-out: IC50 against the other CYP450 isoforms
Procedure: as §1

[2] = Pharmacokinetics in plasma and brain (NeuroPK study); assay type: in vivo, Sprague-Dawley rats
Procedure: Pharmacokinetics in Plasma and Brain (NeuroPK study)
Nine male wildtype Sprague Dawley rats were administered a bolus injection containing compound 27 in saline (1 mg/kg, 2 mL/kg) via the tail vein. Blood samples (approximately 120 µL) were harvested under light isoflurane anesthesia from a set of three rats at 0.08, 0.25, and 1 hr. Blood and brain samples were collected at 5, […] and 60 min. Following centrifugation of blood samples, the resulting plasma supernatant was stored at -70 ± 10 °C till further analysis. Brain samples were homogenized using ice-cold phosphate buffer saline (pH 7.4) and homogenates were stored below -70 ± 10 °C until further analysis. Total homogenate volume was three times the brain weight. Plasma and brain samples were quantified by LC-MS/MS method. The plasma and brain concentration-time data of compound 27 was used for pharmacokinetic analysis. […]

PDE7 = test: PET imaging in nonhuman primates (baseline and self-blocking); assay type: in vivo, Cynomolgus monkeys; settings: monkeys, self-blocking, 0.4 or 1 mg/kg
Procedure: Cynomolgus monkeys used for PET/CT scan were deprived of food for 12h but allowed to drink water at any time. Animals (Male, bodyweight 5.0-5.2 kg) were anesthetized with ketamine, placed into the scanner (GE Discovery Elite 690, USA), and maintained with 2% isoflurane and 98% oxygen. A solution of [11C]27 (6.24–9.84 mCi) was injected into the monkey via a venous catheter, followed by a dynamic PET scan. For the blocking study, the blocking reagent reference compound 27 (0.4 or 1.0 mg/kg, iv) was used, followed by the injection of [11C]27. Time-activity curves of each brain region were extracted from the corresponding VOIs and brain uptake was decay-corrected and expressed as SUV. biodistribution studies in miceWhole-body ex vivo

[3] = 5 min, single iv 1 mg/kg, male Sprague-Dawley rats, n = 3, 1 mg/kg

T1 sequence (Q13946 whole entry): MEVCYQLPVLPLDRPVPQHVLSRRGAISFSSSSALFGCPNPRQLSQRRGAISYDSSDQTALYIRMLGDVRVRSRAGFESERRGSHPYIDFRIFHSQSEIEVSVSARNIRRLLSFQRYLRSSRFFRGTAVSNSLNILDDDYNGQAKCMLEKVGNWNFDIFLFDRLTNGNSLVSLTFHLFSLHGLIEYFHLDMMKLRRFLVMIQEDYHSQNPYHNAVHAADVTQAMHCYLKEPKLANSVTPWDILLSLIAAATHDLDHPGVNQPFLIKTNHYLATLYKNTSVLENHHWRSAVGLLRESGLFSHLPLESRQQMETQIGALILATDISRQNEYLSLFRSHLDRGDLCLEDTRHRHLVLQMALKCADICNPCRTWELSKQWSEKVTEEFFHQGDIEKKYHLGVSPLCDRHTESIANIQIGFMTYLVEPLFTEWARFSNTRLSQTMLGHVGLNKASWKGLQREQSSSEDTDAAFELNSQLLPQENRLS

Work on `COc1ccc(Cl)c2c1C1(CCCCC1)NC(=O)N2` [Compound 27] yielded an IC50 (PDE7A) of 0.031 µM, an IC50 (CYP1A2) of 4.4 µM and an IC50 at 80 min [1] of no less than 10 µM. The brain concentration mean [2, 3] was 3316.17 ng/g, the plasma concentration mean [2, 3] was 712.49 ng/mL and the plasma concentration mean ([2]; 60 min, single iv 1 mg/kg, male Sprague-Dawley rats, n = 3, 1 mg/kg) was 39.39 ng/mL. For the same compound, the “brain-to-plasma ratios (Kp)” value ([2]; all measured time points (5-60 min), SD rats, 1 mg/kg iv, 1 mg/kg) was greater than 3, the “fraction of the compound remaining in the brain” value ([2]; last measured time point (60 min), relative to 5 min peak, rats) was “less than 5%” and the Kp at 5 min ([2]; male, Sprague-Dawley, rat, brain, iv, 1 mg/kg, 5 min, single iv 1 mg/kg, male Sprague-Dawley rats, n = 3, read-out: Kp (brain-to-plasma ratio) mean) was 4.76. For the same compound, the Kp at 25 min ([2]; male, Sprague-Dawley, rat, brain, iv, 1 mg/kg, 25 min, single iv 1 mg/kg, male Sprague-Dawley rats, n = 3, read-out: Kp (brain-to-plasma ratio) mean) was 4, the Kp at 1 h ([2]; male, Sprague-Dawley, rat, brain, iv, 1 mg/kg, 60 min, single iv 1 mg/kg, male Sprague-Dawley rats, n = 3, read-out: Kp (brain-to-plasma ratio) mean) was 3.35 and the Kp ([2]; male, Sprague-Dawley, rat, brain, iv, 1 mg/kg, all measured time points (5-60 min), SD rats, 1 mg/kg iv, read-out: brain-to-plasma ratios (Kp)) was 3 to 5. The concentration at 5 min ([2]; rat, brain, 5 min, single iv 1 mg/kg, male Sprague-Dawley rats, n = 3, read-out: brain concentration mean) was 3320 ± 378 ng/g, the concentration at 25 min ([2]; rat, brain, 25 min, single iv 1 mg/kg, male Sprague-Dawley rats, n = 3, read-out: brain concentration mean) was 876 ng/g and the concentration at 60 min ([2]; rat, brain, 60 min, single iv 1 mg/kg, male Sprague-Dawley rats, n = 3, read-out: brain concentration mean) was 132 ng/g. For the same compound, the concentration at 5 min ([2]; rat, plasma, 5 min, single iv 1 mg/kg, male Sprague-Dawley rats, n = 3, read-out: plasma concentration mean) was 712 ± 153 ng/mL, the concentration at 25 min ([2]; rat, plasma, 25 min, single iv 1 mg/kg, male Sprague-Dawley rats, n = 3, read-out: plasma concentration mean) was 229 ng/mL and the concentration at 60 min ([2]; rat, plasma, 60 min, single iv 1 mg/kg, male Sprague-Dawley rats, n = 3, read-out: plasma concentration mean) was 39.4 ± 4.44 ng/mL. For the same compound, the “effect of pretreatment on [11C]27 uptake in all assessed brain regions” value (PDE7) was “moderately reduced”.
